Results: patent US8124624B2, “Substituted sulfonamide compounds” (Gruenenthal GmbH, priority 2008, dated 2012)

What was measured:
B1R of the rat = target: T1, B1R of the rat (Rattus norvegicus, UniProt P97583); assay: FLIPR Ca2+ influx assay, B1R antagonism, rat (rB1R CHO K1 cells); type: cell-based; details: test substance 10 μM, CHO K1 cells stably transfected with rat B1R, agonist Des-Arg9-bradykinin at EC80, % inhibition compared with maximum achievable inhibition; for inhibition at 10 µM: read-out: B1R antagonism, rat [10 μM] % inhibition
T1 construct: expressed in transfected cells; host or cells: CHO K1 cells (rB1R cells)
T1 sequence (P97583 1-337): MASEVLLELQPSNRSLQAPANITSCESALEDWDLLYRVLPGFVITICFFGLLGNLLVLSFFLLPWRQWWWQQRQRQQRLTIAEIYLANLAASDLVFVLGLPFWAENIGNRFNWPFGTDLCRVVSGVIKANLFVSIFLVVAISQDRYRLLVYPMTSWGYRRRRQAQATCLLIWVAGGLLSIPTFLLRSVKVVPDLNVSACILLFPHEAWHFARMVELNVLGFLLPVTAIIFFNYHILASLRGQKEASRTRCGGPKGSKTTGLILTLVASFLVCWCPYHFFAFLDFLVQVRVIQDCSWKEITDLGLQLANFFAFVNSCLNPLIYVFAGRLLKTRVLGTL
Protocol: (§1) The agonistic or antagonistic action of substances can be quantified on the bradykinin receptor 1 (B1R) of the species human and rat using ectopically expressing cell lines (CHO K1 cells) and with the aid of a Ca^2+-sensitive dye (Fluo-4) using a fluorescent imaging plate reader (FLIPR). The indication in % activation is based on the Ca^2+ signal after addition of Lys-Des-Arg^9-bradykinin (0.5 nM) or Des-Arg^9-bradykinin (100 nM). Antagonists lead to suppression of the Ca^2+ influx after the addition of the agonist. % Inhibition compared with the maximum achievable inhibition is indicated.
(§2) The agonistic or antagonistic action of substances can be determined on the bradykinin receptor 1 (B1R) of the species human and rat using the following assay. According to this assay, the Ca^2+ influx through the channel is quantified with the aid of a Ca^2+-sensitive dye (Fluo-4 type, Molecular Probes Europe BV, Leiden, Netherlands) using a Fluorescent Imaging Plate Reader (FLIPR, Molecular Devices, Sunnyvale, USA).
(§3) Chinese hamster ovary cells (CHO K1 cells) which have been stably transfected with the human B1R gene (hB1R cells) or with the B1R gene of the rat (rB1R cells) are used. For functional studies, the cells are plated out on black 96-well plates having a clear base (BD Biosciences, Heidelberg, Germany or Greiner, Frickenhausen, Germany) in a density of 20,000-35,000 cells/well. The cells are incubated overnight at 37° C. and with 5% CO2 in culture medium (hB1R cells: Nutrient Mixture Ham's F12, Gibco Invitrogen GmbH, Karlsruhe, Germany or DMEM, Sigma-Aldrich, Taufkirchen, Germany; rB1R cells: D-MEM/F12, Gibco Invitrogen GmbH, Karlsruhe, Germany), with 10 vol. % FBS (fetal bovine serum, Gibco Invitrogen GmbH, Karlsruhe, Germany or PAN Biotech GmbH, Aidenbach, Germany).
(§4) On the following day, the cells are loaded for 60 minutes at 37° C. with 2.13 μM Fluo-4 (Molecular Probes Europe BV, Leiden, Netherlands) in HBSS buffer (Hank's buffered saline solution, Gibco Invitrogen GmbH, Karlsruhe, Germany) […] (Sigma-Aldrich, Taufkirchen, Germany) and 10 mM HEPES (Sigma-Aldrich, Taufkirchen, Germany). The plates are then washed twice with HBSS buffer, and HBSS buffer additionally containing 0.1% BSA (bovine serum albumin; Sigma-Aldrich, Taufkirchen, Germany), 5.6 mM glucose and 0.05% gelatin (Merck KGaA, Darmstadt, Germany) is added to the plates. After incubation for a further 20 minutes at room temperature, the plates are inserted into the FLIPR for Ca^2+ measurement.
(§5) Alternatively, washing is carried out with buffer A (15 mM HEPES, 80 mM NaCl, 5 mM KCl, 1.2 mM CaCl2, 0.7 mM MgSO4, 2 g/l glucose, 2.5 mM probenecid) followed by loading with buffer A with added 2.5 μM Fluo-4 and 0.025% Pluronic F127 (Sigma-Aldrich, Taufkirchen, Germany). The cells are then washed twice with buffer A and incubated for 30 minutes at room temperature with buffer A additionally containing 0.05% BSA and 0.05% gelatin and are then inserted into the FLIPR for Ca^2+ measurement.
(§6) The Ca^2+-dependent fluorescence is measured before and after the addition of substances (λex=488 nm, λem=540 nm). Quantification is carried out by measuring the highest fluorescence intensity (FC, fluorescence counts) over time.
(§7) The FLIPR protocol consists of two substance additions. Test substances (10 μM) are first pipetted onto the cells and the Ca^2+ influx is compared with the control (hB1R: Lys-Des-Arg^9-bradykinin >=50 nM; rB1R: Des-Arg^9-bradykinin 10 μM). This gives the activation in %, based on the Ca^2+ signal after addition of Lys-Des-Arg^9-bradykinin (>=50 nM) or Des-Arg^9-bradykinin (10 μM). After 10-20 minutes' incubation, Lys-Des-Arg^9-bradykinin (hB1R) or Des-Arg^9-bradykinin (rB1R) is applied in the concentration of the EC80, and the influx of Ca^2+ is likewise determined. Antagonists lead to suppression of the Ca^2+ influx. The % inhibition compared with the maximum achievable inhibition is calculated. […]

human B1R = target: T2, human B1R (Homo sapiens, UniProt P46663); assay: FLIPR Ca2+ influx assay, B1R antagonism, human (hB1R CHO K1 cells); type: cell-based; details: test substance 10 μM, CHO K1 cells stably transfected with human B1R, agonist Lys-Des-Arg9-bradykinin at EC80, % inhibition compared with maximum achievable inhibition; for inhibition at 10 µM: read-out: B1R antagonism, human [10 μM] % inhibition
T2 construct: expressed in transfected cells; host or cells: CHO K1 cells (hB1R cells)
T2 sequence (P46663 1-353): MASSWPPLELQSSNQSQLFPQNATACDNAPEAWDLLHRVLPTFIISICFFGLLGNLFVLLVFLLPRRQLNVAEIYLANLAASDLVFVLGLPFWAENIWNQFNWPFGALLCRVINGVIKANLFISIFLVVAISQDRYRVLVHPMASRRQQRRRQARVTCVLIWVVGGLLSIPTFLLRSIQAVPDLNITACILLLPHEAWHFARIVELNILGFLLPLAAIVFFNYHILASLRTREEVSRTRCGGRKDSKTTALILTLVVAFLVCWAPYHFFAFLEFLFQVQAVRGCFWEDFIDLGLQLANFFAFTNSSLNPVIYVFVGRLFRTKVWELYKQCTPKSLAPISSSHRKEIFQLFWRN
Protocol: as §1, §2, §3, §4, §5, §6, §7

Structure (SMILES) | inhibition at 10 µM (B1R of the rat) [%] | inhibition at 10 µM (human B1R) [%] | B1R antagonism, rat [10 μM] % inhibition (B1R of the rat) [%] | B1R antagonism, human [10 μM] % inhibition (human B1R) [%]
Cc1cccc(Cl)c1S(=O)(=O)N(CCOCC(=O)N1CCC(CCCN2CCCC2)(c2cccc(Cl)c2)CC1)C1CC1 [Example 77, 2-Chloro-N-[2-[2-[4-(3-chlorophenyl)-4-(3-pyrrolidin-1-yl-propyl)-piperidin-1-yl]-2-oxo-ethoxy]-ethyl]-N-cyclopropyl-6-methyl-benzenesulfonic acid amide] | 92 | 100 | – | –
COc1cc(C)c(S(=O)(=O)N2CCCCC2COCC(=O)N2CCC(CCCN(C)C)(c3cccnc3)CC2)c(C)c1 (stereo not drawn) [Example 22, 1-(4-(3-(Dimethylamino)propyl)-4-(pyridin-3-yl)piperidin-1-yl)-2-((1-(4-methoxy-2,6-dimethylphenylsulfonyl)piperidin-2-yl)methoxy)ethanone] | 102 | 98 | – | –
COc1cc(C)c(S(=O)(=O)N2CCCCC2COCC(=O)N2CCC(CCCN3CCCC3)(c3cccnc3)CC2)c(C)c1 (stereo not drawn) [Example 16, 2-((1-(4-Methoxy-2,6-dimethylphenylsulfonyl)piperidin-2-yl)methoxy)-1-(4-(pyridin-3-yl)-4-(3-(pyrrolidin-1-yl)propyl)piperidin-1-yl)ethanone] | 102 | 97 | – | –
CN(C)CCCC1(c2cccnc2)CCN(C(=O)COCC2CCc3ccccc3N2S(=O)(=O)c2ccc(Cl)c(Cl)c2)CC1 (stereo not drawn) [Example 21, 2-((1-(3,4-Dichlorophenylsulfonyl)-1,2,3,4-tetrahydroquinolin-2-yl)methoxy)-1-(4-(3-(dimethylamino)propyl)-4-(pyridin-3-yl)piperidin-1-yl)ethanone] | 98 | 56 | – | –
O=C(COCC1CCCCN1S(=O)(=O)c1ccccc1C(F)(F)F)N1CCC(CCCN2CCCC2)(c2cccnc2)CC1 (stereo not drawn) [Example 41, 1-[4-Pyridin-3-yl-4-(3-pyrrolidin-1-yl-propyl)-piperidin-1-yl]-2-[[1-[[2-(trifluoromethyl)-phenyl]sulfonyl]-piperidin-2-yl]-methoxy]-ethanone] | 104 | 100 | – | –
COc1cc(C)c(S(=O)(=O)N2CCCCC2COCC(=O)N2CCC(CCCN3CCCC3)(c3cccnc3)CC2)c(C)c1 (stereo not drawn) [Example 27, 2-[[1-[(4-Methoxy-2,6-dimethyl-phenyl)sulfonyl]-piperidin-2-yl]-methoxy]-1-[4-pyridin-3-yl-4-(3-pyrrolidin-1-yl-propyl)-piperidin-1-yl]-ethanone] | – | – | 102 | 100
O=C(CCCC1CCCCN1S(=O)(=O)c1cccc2ccccc12)N1CCC(CCCN2CCCC2)(c2ccncc2)CC1 (stereo not drawn) [Example 64, 4-[1-(Naphthalen-1-ylsulfonyl)-piperidin-2-yl]-1-[4-pyridin-4-yl-4-(3-pyrrolidin-1-yl-propyl)-piperidin-1-yl]-butan-1-one] | 46 | – | – | –

Continued, values first:

inhibition at 10 µM (B1R of the rat) [%] | inhibition at 10 µM (human B1R) [%] | B1R antagonism, rat [10 μM] % inhibition (B1R of the rat) [%] | B1R antagonism, human [10 μM] % inhibition (human B1R) [%] | Structure (SMILES)
– | – | 101 | 100 | COc1cc(C)c(S(=O)(=O)N(CCOCC(=O)N2CCC(CCCN3CCCC3)(c3cccnc3)CC2)Cc2ccccc2)c(C)c1 [Example 38, N-Benzyl-4-Methoxy-2,6-dimethyl-N-[2-[2-oxo-2-[4-pyridin-3-yl-4-(3-pyrrolidin-1-yl-propyl)-piperidin-1-yl]-ethoxy]-ethyl]-benzenesulfonic acid amide]
– | – | 101 | 100 | COc1cc(C)c(S(=O)(=O)N2c3ccccc3OCC2COCC(=O)N2CCC(CCCN3CCCC3)(c3cccnc3)CC2)c(C)c1 (stereo not drawn) [Example 68, 2-[[4-[(4-Methoxy-2,6-dimethyl-phenyl)sulfonyl]-3,4-dihydro-2H-[1,4]benzoxazin-3-yl]-methoxy]-1-[4-pyridin-3-yl-4-(3-pyrrolidin-1-yl-propyl)-piperidin-1-yl]-ethanone]
103 | 100 | – | – | COc1cc(C)c(S(=O)(=O)N(CCOCC(=O)N2CCC(CCCN3CCCC3)(c3cccnc3)CC2)c2ccccc2)c(C)c1 [Example 48, 4-Methoxy-2,6-Dimethyl-N-[2-[2-oxo-2-[4-pyridin-3-yl-4-(3-pyrrolidin-1-yl-propyl)-piperidin-1-yl]-ethoxy]-ethyl]-N-phenyl-benzenesulfonic acid amide]
102 | 100 | – | – | COc1cc(C)c(S(=O)(=O)N2c3ccccc3OCC2COCC(=O)N2CCC(CCCN3CCCC3)(c3cccnc3)CC2)c(C)c1 (stereo not drawn) [Example 67, 2-[[4-[(4-Methoxy-2,6-dimethyl-phenyl)sulfonyl]-3,4-dihydro-2H-[1,4]benzoxazin-3-yl]-methoxy]-1-[4-pyridin-3-yl-4-(3-pyrrolidin-1-yl-propyl)-piperidin-1-yl]-ethanone]
101 | 100 | – | – | COc1cc(C)c(S(=O)(=O)N(C)CCOCC(=O)N2CCC(CCCN3CCCC3)(c3cccnc3)CC2)c(C)c1C [Example 31, 4-Methoxy-N,2,3,6-tetramethyl-N-[2-[2-oxo-2-[4-pyridin-3-yl-4-(3-pyrrolidin-1-yl-propyl)-piperidin-1-yl]-ethoxy]-ethyl]-benzenesulfonic acid amide]
– | – | – | 100 | COc1cc(C)c(S(=O)(=O)N2c3ccccc3CCC2COCC(=O)N2CCC(CCCN3CCCC3)(c3cccnc3)CC2)c(C)c1 (stereo not drawn) [Example 54, 2-[[1-[(4-Methoxy-2,6-dimethyl-phenyl)sulfonyl]-1,2,3,4-tetrahydro-quinolin-2-yl]-methoxy]-1-[4-pyridin-3-yl-4-(3-pyrrolidin-1-yl-propyl)-piperidin-1-yl]-ethanone]
